From ChEMBL document CHEMBL5465560, “Selectivity Literature for EUbOPEN Chemogenomic Library” (2024) come the findings set out here.

Test [1] concerns the target SRSF protein kinase 3 (Homo sapiens) (UniProt Q9UPE1). As to the kind of experiment: Selectivity interaction (Kinase panel (Z-LYTE Assay)) EUB0001632a SRPK3. The conditions noted are these: at 10 µM.
The target in test [2] is T1, Serine/threonine-protein kinase 17A (Homo sapiens) (UniProt Q9UEE5).
T1 sequence (whole entry): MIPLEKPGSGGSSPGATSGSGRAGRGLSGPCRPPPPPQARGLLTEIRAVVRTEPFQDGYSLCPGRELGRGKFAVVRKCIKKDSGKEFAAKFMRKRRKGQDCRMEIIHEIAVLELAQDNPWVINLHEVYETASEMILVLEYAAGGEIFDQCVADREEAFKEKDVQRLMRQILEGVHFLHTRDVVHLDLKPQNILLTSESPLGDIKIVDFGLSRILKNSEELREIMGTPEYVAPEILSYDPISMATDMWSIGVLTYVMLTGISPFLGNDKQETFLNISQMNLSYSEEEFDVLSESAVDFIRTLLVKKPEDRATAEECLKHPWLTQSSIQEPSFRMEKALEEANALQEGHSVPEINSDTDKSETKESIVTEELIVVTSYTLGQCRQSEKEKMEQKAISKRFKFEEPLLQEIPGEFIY
As to the kind of experiment: Selectivity interaction (KinomeScan (DiscoverX)) EUB0000595a STK17A. The conditions noted are these: at 10 µM.

In another test the target is Misshapen-like kinase 1 (Homo sapiens, UniProt Q8N4C8). As to the kind of experiment: Selectivity interaction (ActivX KiNativ screen (ex vivo kinase selectivity in human PBMCs)) EUB0001619a MINK1. Format: cell-based. As to conditions: PBMC, at 1 µM.
Sequence of Misshapen-like kinase 1 (Q8N4C8 whole entry, looked up): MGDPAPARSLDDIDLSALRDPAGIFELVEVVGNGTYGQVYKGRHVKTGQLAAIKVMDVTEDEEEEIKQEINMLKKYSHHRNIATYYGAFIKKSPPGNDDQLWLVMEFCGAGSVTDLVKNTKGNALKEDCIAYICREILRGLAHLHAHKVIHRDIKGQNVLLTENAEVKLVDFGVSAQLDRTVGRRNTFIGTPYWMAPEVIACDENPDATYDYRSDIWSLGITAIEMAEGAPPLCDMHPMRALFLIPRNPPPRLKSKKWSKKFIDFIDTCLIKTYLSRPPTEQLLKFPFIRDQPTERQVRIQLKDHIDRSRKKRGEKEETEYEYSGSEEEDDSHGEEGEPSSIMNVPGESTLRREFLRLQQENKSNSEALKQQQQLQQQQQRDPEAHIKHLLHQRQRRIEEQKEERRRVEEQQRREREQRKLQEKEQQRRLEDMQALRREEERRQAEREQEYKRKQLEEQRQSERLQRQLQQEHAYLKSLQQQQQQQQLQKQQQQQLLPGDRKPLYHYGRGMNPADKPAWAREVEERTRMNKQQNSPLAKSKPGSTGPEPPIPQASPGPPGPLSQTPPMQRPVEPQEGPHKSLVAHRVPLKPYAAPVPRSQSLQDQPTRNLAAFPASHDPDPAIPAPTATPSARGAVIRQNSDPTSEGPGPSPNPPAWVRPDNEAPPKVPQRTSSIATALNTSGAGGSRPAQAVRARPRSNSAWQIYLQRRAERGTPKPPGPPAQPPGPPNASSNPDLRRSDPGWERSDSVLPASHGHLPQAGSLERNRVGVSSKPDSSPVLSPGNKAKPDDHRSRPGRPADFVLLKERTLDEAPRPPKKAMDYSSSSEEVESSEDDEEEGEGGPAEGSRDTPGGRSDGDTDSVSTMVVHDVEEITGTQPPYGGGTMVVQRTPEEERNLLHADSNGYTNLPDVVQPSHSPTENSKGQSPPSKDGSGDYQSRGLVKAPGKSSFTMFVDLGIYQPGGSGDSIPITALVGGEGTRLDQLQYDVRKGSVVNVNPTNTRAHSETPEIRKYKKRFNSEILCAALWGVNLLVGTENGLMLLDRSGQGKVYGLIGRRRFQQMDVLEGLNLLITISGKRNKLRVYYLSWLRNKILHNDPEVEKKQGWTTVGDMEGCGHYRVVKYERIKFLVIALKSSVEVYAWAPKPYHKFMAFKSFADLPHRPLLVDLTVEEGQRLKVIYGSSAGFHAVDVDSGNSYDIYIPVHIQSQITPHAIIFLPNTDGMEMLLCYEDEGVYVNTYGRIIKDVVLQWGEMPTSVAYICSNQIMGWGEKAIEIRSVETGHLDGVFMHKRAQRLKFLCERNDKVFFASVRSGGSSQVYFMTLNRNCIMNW
The target in test [3] is Cyclin-dependent kinase 3 (Homo sapiens) (UniProt Q00526). The experiment in a line: Selectivity interaction (KinomeScan (DiscoverX)) EUB0000666a CDK3. The conditions noted are these: at 10 µM.
Sequence of Cyclin-dependent kinase 3 (Homo sapiens) (Q00526 whole entry, looked up): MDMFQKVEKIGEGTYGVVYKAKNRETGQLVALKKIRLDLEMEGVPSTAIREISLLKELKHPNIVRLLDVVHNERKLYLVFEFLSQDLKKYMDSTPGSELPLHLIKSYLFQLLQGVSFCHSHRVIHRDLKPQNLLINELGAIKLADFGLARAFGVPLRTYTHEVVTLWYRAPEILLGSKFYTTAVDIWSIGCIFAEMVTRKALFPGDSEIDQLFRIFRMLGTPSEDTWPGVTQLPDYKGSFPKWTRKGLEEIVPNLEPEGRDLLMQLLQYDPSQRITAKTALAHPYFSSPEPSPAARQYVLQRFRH
Test [4] concerns the target Glycogen synthase kinase-3 beta (Homo sapiens, UniProt P49841). The experiment in a line: Selectivity interaction (KinomeScan (DiscoverX)) EUB0000607a GSK3B. The conditions noted are these: at 10 µM.
In test [5] the target is T2, 3-phosphoinositide-dependent protein kinase 1 (Homo sapiens) (UniProt O15530).
T2 sequence (whole entry): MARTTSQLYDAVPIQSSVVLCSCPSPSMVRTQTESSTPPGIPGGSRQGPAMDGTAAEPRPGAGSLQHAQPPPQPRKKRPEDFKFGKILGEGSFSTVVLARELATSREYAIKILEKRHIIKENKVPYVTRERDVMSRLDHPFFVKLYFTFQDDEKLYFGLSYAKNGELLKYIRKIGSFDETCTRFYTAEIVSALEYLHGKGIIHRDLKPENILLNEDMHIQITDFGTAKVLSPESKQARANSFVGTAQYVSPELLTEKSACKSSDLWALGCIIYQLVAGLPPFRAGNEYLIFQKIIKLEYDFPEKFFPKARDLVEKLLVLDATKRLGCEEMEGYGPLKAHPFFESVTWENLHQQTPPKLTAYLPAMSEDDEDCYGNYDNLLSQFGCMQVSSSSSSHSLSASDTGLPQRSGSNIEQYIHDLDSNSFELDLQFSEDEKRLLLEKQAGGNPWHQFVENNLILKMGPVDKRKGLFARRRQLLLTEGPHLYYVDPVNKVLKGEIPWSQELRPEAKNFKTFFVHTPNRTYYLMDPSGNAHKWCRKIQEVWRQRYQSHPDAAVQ
The experiment in a line: Selectivity interaction (Kinase panel (literature)) EUB0001199aCl PDPK1. As to conditions: at 1 µM.

In test [6] the target is Casein kinase I isoform gamma-2 (Homo sapiens) (UniProt P78368). The experiment in a line: Selectivity interaction (Ambit KINOMEscan and KiNATiv profiling in Jurkat cells) EUB0000090b CSNK1G2. The format is cell-based. As to conditions: at 1 µM.
Sequence of Casein kinase I isoform gamma-2 (Homo sapiens) (P78368 whole entry, looked up, canonical isoform): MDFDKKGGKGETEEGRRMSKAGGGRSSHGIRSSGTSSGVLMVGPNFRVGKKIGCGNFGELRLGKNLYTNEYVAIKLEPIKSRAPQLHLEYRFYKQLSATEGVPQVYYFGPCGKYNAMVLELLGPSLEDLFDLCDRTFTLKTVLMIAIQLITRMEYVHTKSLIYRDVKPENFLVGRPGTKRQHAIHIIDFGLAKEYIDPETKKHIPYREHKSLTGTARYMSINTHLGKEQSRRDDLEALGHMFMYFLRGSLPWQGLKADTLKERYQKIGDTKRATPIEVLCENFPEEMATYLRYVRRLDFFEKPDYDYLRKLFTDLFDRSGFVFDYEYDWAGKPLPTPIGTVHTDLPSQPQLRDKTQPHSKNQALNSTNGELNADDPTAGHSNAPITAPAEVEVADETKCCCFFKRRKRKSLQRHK
Test [7] addresses T3, MAP kinase-activated protein kinase 5 (Homo sapiens) (UniProt Q8IW41).
T3 sequence (whole entry): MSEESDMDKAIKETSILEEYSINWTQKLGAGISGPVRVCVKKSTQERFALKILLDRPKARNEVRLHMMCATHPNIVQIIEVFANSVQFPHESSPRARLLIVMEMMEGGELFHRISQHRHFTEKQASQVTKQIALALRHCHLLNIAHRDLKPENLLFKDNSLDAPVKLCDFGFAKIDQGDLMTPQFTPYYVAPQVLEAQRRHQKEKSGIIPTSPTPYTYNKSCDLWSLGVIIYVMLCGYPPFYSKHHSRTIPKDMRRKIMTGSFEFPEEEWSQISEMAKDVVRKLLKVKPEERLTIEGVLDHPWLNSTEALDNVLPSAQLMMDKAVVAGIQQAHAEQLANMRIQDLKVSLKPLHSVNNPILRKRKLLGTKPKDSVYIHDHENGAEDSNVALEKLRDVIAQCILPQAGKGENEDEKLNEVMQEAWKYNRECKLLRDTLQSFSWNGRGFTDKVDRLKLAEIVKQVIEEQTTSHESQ
As to the kind of experiment: Selectivity interaction (Upstate Kinase Profiler service (Millipore)) EUB0000056c MAPKAPK5. As to conditions: at 1 µM.

Test [8] deals with Serine/threonine-protein kinase 38-like (Homo sapiens) (UniProt Q9Y2H1). As to the kind of experiment: Selectivity interaction (KinomeScan (DiscoverX)) EUB0000655a STK38L. As to conditions: at 10 µM.
Sequence of Serine/threonine-protein kinase 38-like (Homo sapiens) (Q9Y2H1 2-464 limits assumed): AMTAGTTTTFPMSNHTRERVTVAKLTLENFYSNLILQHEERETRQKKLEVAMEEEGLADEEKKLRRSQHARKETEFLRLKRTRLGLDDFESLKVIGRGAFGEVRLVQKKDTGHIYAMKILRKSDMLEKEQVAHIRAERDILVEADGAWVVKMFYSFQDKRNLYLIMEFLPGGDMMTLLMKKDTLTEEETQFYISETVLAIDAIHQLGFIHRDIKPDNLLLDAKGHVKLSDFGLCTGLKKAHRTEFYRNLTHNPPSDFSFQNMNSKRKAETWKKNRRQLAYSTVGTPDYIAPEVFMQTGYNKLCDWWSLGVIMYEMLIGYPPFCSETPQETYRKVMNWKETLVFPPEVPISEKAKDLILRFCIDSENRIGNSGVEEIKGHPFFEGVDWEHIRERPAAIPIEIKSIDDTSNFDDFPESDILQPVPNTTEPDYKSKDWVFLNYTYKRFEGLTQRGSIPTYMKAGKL
Test [9] concerns the target Lethal(3)malignant brain tumor-like protein 3 (Homo sapiens) (UniProt Q96JM7). The experiment in a line: Selectivity interaction (PWWP, WD40, and Tudor domain panel (DSLS measurements, literature)) EUB0000270b L3MBTL3.
Test [10] concerns the target T4, Serine/threonine-protein kinase DCLK1 (Homo sapiens) (UniProt O15075).
T4 sequence (whole entry): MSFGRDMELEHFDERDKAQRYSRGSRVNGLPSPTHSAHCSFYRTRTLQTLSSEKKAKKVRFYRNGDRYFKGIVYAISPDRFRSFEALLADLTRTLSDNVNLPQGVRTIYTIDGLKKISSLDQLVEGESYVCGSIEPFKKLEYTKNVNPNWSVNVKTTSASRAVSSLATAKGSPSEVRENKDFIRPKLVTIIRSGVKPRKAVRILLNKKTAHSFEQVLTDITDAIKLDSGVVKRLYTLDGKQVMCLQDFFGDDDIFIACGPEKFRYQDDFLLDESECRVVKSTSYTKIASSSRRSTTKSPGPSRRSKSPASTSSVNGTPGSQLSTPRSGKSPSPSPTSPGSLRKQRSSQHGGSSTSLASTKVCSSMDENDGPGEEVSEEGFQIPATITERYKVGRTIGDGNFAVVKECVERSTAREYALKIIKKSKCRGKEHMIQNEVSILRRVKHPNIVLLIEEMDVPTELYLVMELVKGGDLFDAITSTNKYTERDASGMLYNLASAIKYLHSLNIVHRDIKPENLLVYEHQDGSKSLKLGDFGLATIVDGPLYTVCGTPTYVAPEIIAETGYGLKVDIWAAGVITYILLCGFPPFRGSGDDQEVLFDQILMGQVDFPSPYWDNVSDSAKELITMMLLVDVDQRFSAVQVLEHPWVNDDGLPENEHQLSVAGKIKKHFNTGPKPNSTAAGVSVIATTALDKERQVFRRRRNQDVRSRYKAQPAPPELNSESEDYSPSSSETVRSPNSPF
The experiment in a line: Selectivity interaction (KinomeScan (DiscoverX)) EUB0001079a DCLK1. As to conditions: at 1 µM.

Sequence of SRSF protein kinase 3 (Homo sapiens) (Q9UPE1 whole entry): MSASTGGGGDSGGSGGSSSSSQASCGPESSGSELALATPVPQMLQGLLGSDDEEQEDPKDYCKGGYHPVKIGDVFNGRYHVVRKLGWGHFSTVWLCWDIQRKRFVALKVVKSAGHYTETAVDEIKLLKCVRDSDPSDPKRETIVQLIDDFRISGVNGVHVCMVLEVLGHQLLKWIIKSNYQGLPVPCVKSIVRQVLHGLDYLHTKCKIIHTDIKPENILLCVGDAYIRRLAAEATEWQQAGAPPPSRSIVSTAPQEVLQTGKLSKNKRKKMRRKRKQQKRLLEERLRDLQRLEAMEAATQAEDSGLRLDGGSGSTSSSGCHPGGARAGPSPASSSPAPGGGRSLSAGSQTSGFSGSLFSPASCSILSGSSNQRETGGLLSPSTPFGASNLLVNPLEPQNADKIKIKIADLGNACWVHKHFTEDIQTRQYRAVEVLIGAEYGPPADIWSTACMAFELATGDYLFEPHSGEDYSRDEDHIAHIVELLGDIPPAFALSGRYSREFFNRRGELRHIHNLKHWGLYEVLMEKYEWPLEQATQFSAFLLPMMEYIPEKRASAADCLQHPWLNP
Sequence of Glycogen synthase kinase-3 beta (P49841 whole entry, looked up): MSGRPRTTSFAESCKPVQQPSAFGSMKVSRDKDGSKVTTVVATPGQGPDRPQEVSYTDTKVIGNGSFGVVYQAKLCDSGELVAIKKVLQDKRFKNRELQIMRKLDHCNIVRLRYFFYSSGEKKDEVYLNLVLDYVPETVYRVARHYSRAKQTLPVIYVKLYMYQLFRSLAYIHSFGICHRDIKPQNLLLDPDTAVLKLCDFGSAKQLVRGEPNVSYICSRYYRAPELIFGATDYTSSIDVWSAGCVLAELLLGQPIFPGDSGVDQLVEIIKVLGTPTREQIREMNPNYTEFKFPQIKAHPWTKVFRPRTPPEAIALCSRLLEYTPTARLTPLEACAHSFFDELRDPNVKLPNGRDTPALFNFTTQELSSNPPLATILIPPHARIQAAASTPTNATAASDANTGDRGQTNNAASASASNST
Sequence of Lethal(3)malignant brain tumor-like protein 3 (Homo sapiens) (Q96JM7 whole entry, the tested form may be a part): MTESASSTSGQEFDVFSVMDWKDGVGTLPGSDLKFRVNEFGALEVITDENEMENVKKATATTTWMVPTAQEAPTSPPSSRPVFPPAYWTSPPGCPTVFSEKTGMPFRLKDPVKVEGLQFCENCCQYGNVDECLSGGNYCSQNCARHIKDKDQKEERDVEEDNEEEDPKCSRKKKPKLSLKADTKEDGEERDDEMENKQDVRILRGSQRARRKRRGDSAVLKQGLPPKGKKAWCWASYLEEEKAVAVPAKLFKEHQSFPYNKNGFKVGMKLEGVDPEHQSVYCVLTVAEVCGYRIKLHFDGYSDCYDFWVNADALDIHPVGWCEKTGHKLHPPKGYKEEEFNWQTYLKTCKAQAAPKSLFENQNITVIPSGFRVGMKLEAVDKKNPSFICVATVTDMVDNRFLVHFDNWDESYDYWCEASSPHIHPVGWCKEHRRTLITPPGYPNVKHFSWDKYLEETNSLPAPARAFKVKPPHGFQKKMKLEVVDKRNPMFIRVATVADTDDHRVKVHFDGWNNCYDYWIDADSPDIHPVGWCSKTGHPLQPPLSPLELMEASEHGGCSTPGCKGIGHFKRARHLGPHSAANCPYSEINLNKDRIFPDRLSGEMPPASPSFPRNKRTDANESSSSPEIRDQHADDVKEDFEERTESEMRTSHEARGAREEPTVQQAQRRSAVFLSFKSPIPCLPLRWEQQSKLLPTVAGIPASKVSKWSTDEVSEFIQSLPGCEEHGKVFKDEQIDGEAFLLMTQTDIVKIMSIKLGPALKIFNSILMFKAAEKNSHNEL

Regarding `Cn1cc(-n2cnc3c(NCc4nc5cc(Cl)c(Cl)cc5[nH]4)nc(N4CCOCC4)nc32)cn1`, the % of control in [1] was -1.05%.

Consider `COCC(=O)NC/C=C/c1ccc2ncnc(Nc3ccc(Oc4ccc(C)nc4)c(C)c3)c2c1` [CP-724714], for which, in test [2], the % of control was 84%.

`N#Cc1cccc(-c2c[nH]c3ncnc(N4CCOCC4)c23)c1`: the % of inhibition on Misshapen-like kinase 1 is 15%.

As for `O=C(NOC[C@H](O)CO)c1ccc(F)c(F)c1Nc1ccc(I)cc1F`, in [3], the % of control was 69%.

For the compound `CNC(=O)Nc1ccc(-c2nc(N3CC4CCC(C3)O4)c3cnn(C4CCC5(CC4)OCCO5)c3n2)cc1`, in test [4], the % of control was 69%.

As for `CN1Cc2nccc(-c3cn(C)nc3-c3ccc(F)cc3)c2C1=O`, in test [5], the % of inhibition was -4%.

As to `CN(C)C/C=C/C(=O)Nc1ccc(C(=O)N2CCCC(Nc3ncc(Cl)c(-c4c[nH]c5ccccc45)n3)C2)cc1` (stereo unspecified), the % of control in test [6] came to 98%.

On to `Cc1ccc(-c2ccc3c(ccc4sc5c(c43)NC[C@@H](C)NC5=O)n2)cn1`, for which the % of inhibition in [7] stood at 99%.

On to `CN(C)CCOc1ccc(-c2nc(-c3ccncc3)c(-c3ccc4c(c3)CC/C4=N\O)[nH]2)cc1`, for which the % of control in [8] came out at 100%.

For the compound `Cc1cc(CN)cc(C)c1-c1ncn(C)c1-c1cncn1C`, the dTagg in test [9] amounted to 0.2 K.

As to `Nc1cnc(N2CCc3cc(S(=O)(=O)Nc4c(F)cc(Cl)cc4F)cc(N4CCCC4=O)c32)nc1` [TP-020n], the % of control in test [10] worked out at 100%.
